Active and inactive are the calls of the source.
How the values were obtained:
Type in all cases: cell-based
Details in all cases: HEK-293T
[1] = target: T1, Gamma-aminobutyric acid receptor subunit delta (Homo sapiens) (UniProt O14764); experiment: Neurotransmitter activity at GABAA delta receptor expressed in HEK293T cells assessed as release of GABA-induced membrane permeability to chloride ions by photolysis technique
T1 sequence (whole entry): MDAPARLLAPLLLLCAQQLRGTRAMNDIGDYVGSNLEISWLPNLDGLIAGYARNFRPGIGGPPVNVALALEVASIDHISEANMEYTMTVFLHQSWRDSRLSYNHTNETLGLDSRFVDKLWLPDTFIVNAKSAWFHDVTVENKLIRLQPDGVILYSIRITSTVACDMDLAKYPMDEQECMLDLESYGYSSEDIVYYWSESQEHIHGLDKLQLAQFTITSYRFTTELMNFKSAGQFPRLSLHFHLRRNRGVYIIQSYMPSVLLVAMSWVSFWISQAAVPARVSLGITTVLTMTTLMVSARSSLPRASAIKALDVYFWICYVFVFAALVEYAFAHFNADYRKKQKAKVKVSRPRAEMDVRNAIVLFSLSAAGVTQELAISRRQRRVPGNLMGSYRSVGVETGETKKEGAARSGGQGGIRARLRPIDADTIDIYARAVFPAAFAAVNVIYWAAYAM

[2] = target: T2, Gamma-aminobutyric acid receptor subunit alpha-1 (Homo sapiens) (UniProt P14867); experiment: Neurotransmitter activity at GABAA alpha1 receptor expressed in HEK293T cells assessed as release of GABA-induced permeability to chloride ions by photolysis technique
T2 sequence (whole entry): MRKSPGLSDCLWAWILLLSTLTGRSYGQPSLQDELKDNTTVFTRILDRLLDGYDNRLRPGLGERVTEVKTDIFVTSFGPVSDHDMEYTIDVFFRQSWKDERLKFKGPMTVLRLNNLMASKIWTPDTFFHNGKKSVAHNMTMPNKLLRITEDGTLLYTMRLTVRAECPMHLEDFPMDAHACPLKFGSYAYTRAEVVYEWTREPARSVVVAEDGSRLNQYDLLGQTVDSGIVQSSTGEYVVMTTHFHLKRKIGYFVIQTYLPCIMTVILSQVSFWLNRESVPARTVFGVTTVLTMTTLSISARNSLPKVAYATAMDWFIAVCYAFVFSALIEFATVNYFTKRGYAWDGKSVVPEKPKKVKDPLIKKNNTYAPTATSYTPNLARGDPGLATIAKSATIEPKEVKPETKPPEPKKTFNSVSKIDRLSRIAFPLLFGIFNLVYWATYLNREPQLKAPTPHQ

[3] = target: T3, Gamma-aminobutyric acid receptor subunit beta-2 (Homo sapiens) (UniProt P47870); experiment: Neurotransmitter activity at GABAA beta2 receptor expressed in HEK293T cells assessed as release of GABA-induced permeability to chloride ions by photolysis technique
T3 sequence (whole entry): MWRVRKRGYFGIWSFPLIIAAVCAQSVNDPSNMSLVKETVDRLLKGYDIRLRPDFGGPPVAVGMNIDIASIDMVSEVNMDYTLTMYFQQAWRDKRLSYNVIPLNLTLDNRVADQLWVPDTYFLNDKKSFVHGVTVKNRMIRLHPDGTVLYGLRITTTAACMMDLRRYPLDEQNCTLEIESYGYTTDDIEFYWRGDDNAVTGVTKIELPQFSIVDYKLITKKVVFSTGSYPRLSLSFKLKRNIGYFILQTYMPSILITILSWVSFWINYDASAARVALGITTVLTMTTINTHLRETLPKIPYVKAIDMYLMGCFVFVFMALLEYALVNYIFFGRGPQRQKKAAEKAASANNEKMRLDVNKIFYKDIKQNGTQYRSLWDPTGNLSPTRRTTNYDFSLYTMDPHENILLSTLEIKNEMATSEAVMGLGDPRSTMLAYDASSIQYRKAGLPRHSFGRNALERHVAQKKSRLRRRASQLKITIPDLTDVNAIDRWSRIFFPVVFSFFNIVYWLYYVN

Measured: Activity

CCOC(=O)CNC(=O)C(OC(=O)CCCN)c1cc(=O)oc2cc(N(CC)CC)ccc12 (stereo not drawn)
active: all assays above
